In one experiment the target is GLP-1R (GLP-1 acceptor) (Homo sapiens, UniProt P43220). The experiment is described as follows: cAMP accumulation assay, GLP-1 acceptor overexpressing cells. Background: Cyclic AMP is a second messenger, typically raised through Gs and lowered through Gi signalling.
Experiment [1] concerns C57BL/6J mice in which fatty liver was induced by feeding MCD. The experiment can be described thus: In-vivo efficacy against non-alcoholic steatohepatitis (MCD diet mice). As to conditions: for ALT: dulaglutide 2 nmol/kg s.c. 1 time/2 days, 14 times; for Hepatic TGF-β: liver tissue ELISA; for Hepatic Triglyceride / Lobular inflammation score (Lobular inflammation) / NAS (NAFLD Activity Score) / Steatosis score (Steatosis): liver tissue. Further details: species or system mouse; ALT / Hepatic TGF-β / Hepatic Triglyceride: unit not given here. The source says:
The MCD mouse model is the most typically used method for efficacy testing against non-alcoholic steatohepatitis, and it is known that the histological appearance of the induced liver tissue from week 2 to week 4 is histologically similar to that of human non-alcoholic steatohepatitis. There are many precedent cases in which a number of pharmaceutical companies and academia conducted tests with various substances.
Fatty liver was induced by feeding MCD to male C57BL/6J mice for 8 weeks, and then the mice were divided into 6 groups shown in Table 7 below, and drug administration was performed for 4 weeks. As a comparative substance, two currently commercially available drugs, liraglutide (Saxenda) and dulaglutide (Trulycity), were used. The administered composition was repeatedly administered subcutaneously using a disposable syringe according to each administration cycle. […] The normal control group was fed with MCS (Methionine and Choline Sufficient L-Amino Acid Diet).
During the 4-week administration period, general symptoms and behavior were observed, and body weight was measured once a week after the start of administration and on the day of tissue extraction. Blood collection and liver tissue extraction were performed on the day of the end of observation, and blood was subjected to a hematological-biochemical test, and the extracted liver tissue was subjected to a histopathological test.
Alanine aminotransferase (ALT), which is used as the most basic indicator of liver disease, was measured through a hematological-biochemical test, and the results are shown in Table 8 below and FIG. 21.
In addition, histopathological test was performed by observation through H&E and Masson's trichrome staining, and the results are shown in FIG. 23. In the case of non-alcoholic steatohepatitis, steatosis and inflammation in lobules occurs, and inflammatory cells can be identified by tissue staining.
In addition, based on the evaluation criteria shown in Table 10 below, steatosis score, lobular inflammation score, and NAS (NAFLD activity score) were evaluated.
In addition, triglyceride accumulation in the liver tissue was analyzed using the Triglyceride Assay Kit, and the results are shown in Table 15 below and FIG. 28.
The mice were divided into 4 groups shown in Table 16 below, and the experiment was conducted in the same manner as in Test Example 4 above. As a comparative substance, the currently commercially available dulaglutide (Trulycity) was used.
Background: ELISA stands for enzyme-linked immunosorbent assay.

A further experiment has as its target NF-κB activity by IL-1β. The experiment is described as follows: NF-κB reporter gene luciferase assay. In kind it is cell-based. To be noted: IL-1β stimulated. The procedure:
The cells were cultured to 70-80% full in a T-75 flask. The medium was removed and washed once with 5 mL of the pre-warmed PBS. PBS was removed, and 1 mL of TryPLE Express was added, and incubated for 5 minutes in an incubator at 37° C. and 5% CO2, and the cells were detached. It was mixed with 4 mL of assay medium (10% FBS, 1% antibiotic in DMEM), and the mixture was transferred to a 15 mL tube, centrifuged at 1,000 rpm for 3 minutes, and then again released in 5 mL of assay medium. The number of cells was counted, and the concentration was allowed to be 500,000 cells/mL. It was transferred to a reservoir, and 40 μL per well was dispensed into a white 96-well half-area cell culture plate using a multi-channel pipette (20,000 cells/well). Only 40 μL of assay medium was dispensed into the blank well. The cells were incubated in an incubator at 37° C. and 5% CO2 for 24 hours to allow to be attached.
5 μL of each of the reference (10×) and sample (10×) prepared by 4-fold serial dilution was dispensed in duplicate. Thereafter, 5 μL of 50 pM IL-1β (10×) was dispensed and incubated in an incubator at 5% CO2 for 4 hours. 50 μL of ONE-Glo reagent (Promega, Cat. No. E6120) was each dispensed and cultured at room temperature for 5 minutes, and then the luminescence was measured with a Synergy Neo2 instrument. At this time, before treatment with ONE-Glo reagent, the plate was removed from the incubator for 15 minutes and allowed to reach room temperature.
The Delta RLU (relative luminescence unit) (ΔRLU) was calculated as follows.
ΔRLU=RLUsample−RLUblank=Signal−background luminescence
The IC50 values were obtained as ΔRLU by each concentration using GraphPad Prism 8, as follows (curve-fitting of the log (antagonist) vs. normalized response−variable slope equation).
In order to test the ability of the native IL-1RA and the IL-1RA analogue to inhibit NF-κB activity by IL-1β at the cellular level (in vitro), the NF-κB reporter gene luciferase assay was performed in the same manner as in Test Example 3.

[2] abbreviates: Test Example 4, dulaglutide 2 nmol/kg.
[3] abbreviates: Test Example 5, dulaglutide 2 nmol/kg.

Like-named read-outs stand apart in the source and are kept apart here.

Sequence of GLP-1R (GLP-1 acceptor) (P43220 24-463): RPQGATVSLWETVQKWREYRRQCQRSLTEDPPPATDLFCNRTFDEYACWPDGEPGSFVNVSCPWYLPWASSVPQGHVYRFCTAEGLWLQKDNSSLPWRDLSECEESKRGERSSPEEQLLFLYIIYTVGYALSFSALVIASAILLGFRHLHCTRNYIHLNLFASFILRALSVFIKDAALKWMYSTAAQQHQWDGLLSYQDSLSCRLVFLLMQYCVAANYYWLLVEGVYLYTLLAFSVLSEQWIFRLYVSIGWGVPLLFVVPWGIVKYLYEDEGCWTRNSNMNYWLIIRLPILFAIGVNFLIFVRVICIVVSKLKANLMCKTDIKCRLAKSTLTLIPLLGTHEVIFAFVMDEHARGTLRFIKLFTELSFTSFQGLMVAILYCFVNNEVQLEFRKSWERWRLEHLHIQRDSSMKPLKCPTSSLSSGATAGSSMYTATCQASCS

The EC50 is the concentration that produces a half-maximal response. Dulaglutide [reference compound] had an EC50 with GLP-1R (GLP-1 acceptor) (Test Example 9 screening, Cell line: Stable) of 0.00145 ± 0.00045 nM. Also, the EC50 with GLP-1R (GLP-1 acceptor) (read-out: EC50 GLP-1R, 1, Test Example 1, run 1) was determined as 0.00123 nM. In addition, the EC50 in the experiment with GLP-1R (GLP-1 acceptor) (read-out: EC50 GLP-1R, Mean, Test Example 1, mean of 2 runs) stood at 0.00107 nM. For the same substance, the ALT in experiment [1] (Test Example 4, blood) is reported as 220.5. Besides, in experiment [1] (setting [2]), the “Hepatic TGF-β” value stood at 159.60, the “Hepatic Triglyceride” value was determined as 40.78, the “Lobular inflammation score (Lobular inflammation)” value is reported as 1.5 and the “NAS (NAFLD Activity Score)” value is recorded as 3.4. In addition, the “Steatosis score (Steatosis)” value in experiment [1] (setting [2]) was found to be 1.9. The AST/ALT value in experiment [1] (Test Example 5, blood, dulaglutide 2 nmol/kg) was 0.76. The substance further showed an ALT in experiment [1] (Test Example 5, blood) of 246.8. In addition, in experiment [1] (setting [3]), the “Hepatic TGF-β” value stood at 165.3, the “Hepatic Triglyceride” value was 36.08, the “Lobular inflammation score (Lobular inflammation)” value worked out at 1.6 and the “NAS (NAFLD Activity Score)” value amounted to 3.4. Moreover, the “Steatosis score (Steatosis)” value in experiment [1] (setting [3]) came out at 1.8.

For orientation: IC50 means the point on the concentration scale where inhibition reaches its midpoint. rhIL-1RA: native IL-1RA, SEQ ID NO: 27: the IC50 at NF-κB activity by IL-1β (Test Example 3, mean of 4 runs, read-out: IC50, Mean) turned out to be 0.0475 nM; at NF-κB activity by IL-1β (Test Example 3, run 1, read-out: IC50, 1), 0.0399 nM; at NF-κB activity by IL-1β (Test Example 3, run 2, read-out: IC50, 2), 0.0515 nM; at NF-κB activity by IL-1β (Test Example 3, run 3, read-out: IC50, 3), 0.0466 nM; at NF-κB activity by IL-1β (Test Example 3, run 4, read-out: IC50, 4), 0.0519 nM; on NF-κB activity by IL-1β (Test Example 9 screening, read-out: IC50), 0.0686 ± 0.00771 nM.

(Values after patent US20240066137A1, “NOVEL PROTEIN CONJUGATE, AND USE THEREOF FOR PREVENTING OR TREATING NONALCOHOLIC STEATOHEPATITIS, OBESITY AND DIABETES” (ONEGENE BIOTECHNOLOGY INC., priority 2020, published 2024).)
